# Data published in US20030130308A1, “Drugs for spinal anesthesia” (priority 2001, published 2003).
# “Also recorded” adds a separate entry of the source. Counter-ions that a name gives are not always drawn. Marks after values point to notes of the source that are not given here.
# Experiments:
# Assay type in all cases: in vivo
# rats [1] = test: Mean arterial pressure and heart rate via carotid artery catheter after intrathecal injection; conditions: rat
# Description: (§1) Rats were tested before 15 minutes through 240 minutes after intrathecal injection of 5 nmoles (in 10 μl) of 6-[2-(1(2)H-tetrazole-5-yl)ethyl]decahydroisoquinolone-3-carboxylic acid. Sensory function was tested at the hindpaw using withdrawal response to pinprick and withdrawal to pinch with a sharp forceps. Motor performance (ambulation, the placing reflex and Rotarod time), blood pressure and heart rate was also evaluated. Some tests were repeated the next day. Responses after 6-[2-(1(2)H-tetrazole-5-yl)ethyl]decahydroisoquinolone-3-carboxylic acid were compared to injection of 40 μl of bupivacaine, 0.75%. Pinprick responses at the forepaw, chest, abdomen, hindleg and hindpaw were also examined after intrathecal 6-[2-(1(2)H-tetrazole-5-yl)ethyl]decahydroisoquinolone-3-carboxylic acid.
# For blood pressure measurement, the paratracheal region was shaved, prepared with povidone-iodine, and incised 1.5-2 cm longitudinally lateral to the midline. The carotid artery was isolated and cannulated with PE-50 tubing that had been stretched by exposing the distal end to heat. The catheter secured and tunneled subcutaneously to the posterior neck region. The skin was closed with 4-0 silk and the rat was allowed to recover for 2-3 days before experiments began.
# The mean arterial pressure and heart rate were measured using the carotid artery catheter attached to a pressure transducer relayed to a polygraph and preamplifier (Grass, Quincy, Mass). Heart rate was intermittently measured by counting the arterial pulse wave for 30 seconds.
# (§2) The dose and volume of drugs injected intrathecally were determined from the dose required to produce hindlimb sensory and motor loss in preliminary experiments. Bupivacaine HCl (0.75% in 8.25% dextrose for spinal injection) was purchased from Abbott Laboratories (Chicago, Ill.). The intrathecal injection volume was 40 μl. The compound was dissolved in 10% dextrose and water. The injection volume was 1 ul. All intrathecal drug injections were followed by a flush of 10 μl preservative-free saline.
# rats [2] = test: Rotarod performance after intrathecal injection; conditions: rat; for Rotarod Time: mean ± SD
# Description: as §1
# (§3) Rats were anesthetized with halothane. The lumbar region was shaved, prepared with povidone-iodine, made kyphotic and incised 2 to 3 cm longitudinally in the midline at the level of the iliac crests. The space between the 5th and 6th lumbar vertebrae was punctured with 23G hypodermic needle and a 32G PU catheter (10 cm length, OD 0.0107 inches and ID 0.005 inches) reinforced with a Teflon coated stainless steel stylet (0.003 inches) was advanced through the needle cranially. The needle and the stylet were removed and the catheter withdrawn so that 6.5-7 cm extended outside of the lumbar masculature. The catheter was fixed to the fascia, sutured, inserted into an 8 cm length of PE-10 tubing and secured with glue covered with epoxy. The catheter was tunneled under the skin to the cervical region, flushed with saline and sealed with a cautery pen. The dead space of the catheter was 4.5 to 5 μl. The skin was closed and the rat was allowed to recover from anesthesia for 2-3 days.
# (§4) Rats were trained over a two-day period. Training began by placing the rat on a Rotarod (Stoelting, Wood Dale, Ill.) that was fixed for three minutes. Then, three series of trials separated by 2-3 hours were performed. During each trial, the rat was placed on the Rotarod accelerating for the first 20 s then at a constant rate of approximately 5 rpm, until a 180 s cut off time. If the rat fell at any time during the initial trial, the trial was repeated. Each rat was allowed three attempts per trial. On the second day, the same procedure was repeated, though acceleration was sustained for 120 s to approximately 12 rpm, with a 150 second cut off time. On day 3, the test day, rats are again placed on the Rotarod and accelerated for 120 seconds to 12 rpm with the cutoff time of 150 seconds. Each rat was permitted 4 attempts at 15 minute intervals. Those successful in 2 of the 4 attempts continued in the protocol, and the average of the 4 attempts was considered the baseline (pre). […] Then the placing reflex was tested. Rats were placed on a table and the dorsum of either hindpaw was drawn across the edge of the table; this elicits a lifting of the paw onto the surface of the table (2=normal; 1=delay of 1-2 sec.; 0=more than 2 sec.). This test was performed 3 times for each hindlimb after each ambulation test. The sum of the three trials on both paws were recorded (1-12).
# as §2
# rats [3] = test: Ambulation score after intrathecal injection; conditions: rat; for Ambulation Score: median (range)
# Description: as §1, §3
# as §4, with “(pre). After a two-hour period, the test drug was administered and rats were examined once on the Rotarod at 30, 60, 90, 120, 180, and 240 minutes.” for “(pre).”
# as §2
# rats [4] = test: Overall sensory and motor blockade of the hindlimbs after intrathecal injection; conditions: rat
# Description: as §1, §3, §2
# rats [5] = test: Withdrawal response to pinch with forceps at the hindpaw after intrathecal injection; conditions: rat
# Description: as §1, §3
# First, the withdrawal response to pinprick was tested on each hindpaw. A 5 mm long tip of a safety pin attached to a von Frey filament (520 mN) was applied once to the plantar aspect of each hindpaw. Either a withdrawal response or a reaction occurred (1=positive response) or no withdrawal (0=no response). The sum of the scores (0, 1 or 2) for each rat was recorded. If no response or reaction was elicited by pinprick, a serrated dissecting forceps was used to pinch the skin of the plantar region for 2-3 sec. Again, withdrawal or reaction was considered a positive response (score=1) and the absence of both a negative test (score=0). […] Because the response to pinch was quite vigorous and rats were subjected to repeated tests in a single day, only rats unresponsive to pinprick were tested for pinch. If pinprick evoked a response, pinch was designated as positive also. The sum of the scores after pinch (0, 1 or 2) was recorded.
# as §2
# [6] = bupivacaine 0.75% 40 μl intrathecal
# [7] = bupivacaine 0.75% 40 μl intrathecal, fifteen minutes after administration
# [8] = Bupivacaine 0.75% 40 μl IT, n=8, 15 min
# [9] = Bupivacaine 0.75% 40 μl IT, n=8, 30 min
# [10] = Bupivacaine 0.75% 40 μl IT, n=8, 60 min
# [11] = Bupivacaine 0.75% 40 μl IT, n=8, 90 min
# [12] = Bupivacaine 0.75% 40 μl IT, n=8, 120 min
# [13] = Bupivacaine 0.75% 40 μl IT, n=8, 180 min
# [14] = Bupivacaine 0.75% 40 μl IT, n=8, 240 min
# [15] = Bupivacaine 0.75% 40 μl IT, n=8, 24 hrs
# [16] = Bupivacaine 0.75% 40 μl IT, n=8, Pre (before drug injection)
# [17] = LY293558 5 nmoles IT, n=8, 15 min
# [18] = LY293558 5 nmoles IT, n=8, 240 min
# [19] = LY293558 5 nmoles IT, n=8, 24 hrs
# [20] = LY293558 5 nmoles IT, n=8, Pre (before drug injection)
# [21] = 5 nmoles intrathecal, from 15 minutes
smiles,measurement,setting,value
"CCCCN1CCCCC1C(=O)Nc1c(C)cccc1C (stereo not drawn) [Bupivacaine, Bupivacaine HCl]",time by which blood pressure and heart rate changes resolved,rats [1]; [6],≤ 30 min
same,heart rate change vs Pre,rats [1]; [7],increased
same,mean arterial pressure change vs Pre,rats [1]; [7],decreased
same,Rotarod Time,rats [2]; [8],5 ± 6 s
same,Rotarod Time,rats [2]; [9],49 ± 42 s
same,Rotarod Time,rats [2]; [10],135 ± 43 s
same,Rotarod Time,rats [2]; [11],136 ± 39 s
same,Rotarod Time,rats [2]; [12],137 ± 26 s
same,Rotarod Time,rats [2]; [13],142 ± 15 s
same,Rotarod Time,rats [2]; [14],149 ± 2 s
same,Rotarod Time,rats [2]; [15],150 ± 0 s
same,Rotarod Time,rats [2]; [16],146 ± 8 s
same,rotorod performance decreased for (P<0.05 vs Pre),rats [2]; [6],30 min
same,Ambulation Score,rats [3]; [8],0 (0-0)*
same,Ambulation Score,rats [3]; [9],1 (0-2)*
same,Ambulation Score,rats [3]; [10],2 (1-2)
same,Ambulation Score,rats [3]; [11],2 (1-2)
same,Ambulation Score,rats [3]; [12],2 (2-2)
same,Ambulation Score,rats [3]; [13],2 (2-2)
same,Ambulation Score,rats [3]; [14],2 (2-2)
same,Ambulation Score,rats [3]; [15],2 (2-2)
same,Ambulation Score,rats [3]; [16],2 (2-2)
same,ambulation decreased for (P<0.05 vs Pre),rats [3]; [6],30 min
same,sensory and motor responses,rats [4]; [6],decreased
same,time of full recovery of response to pinch,rats [5]; [6],30 min
same,response to pinch vs Pre,"rats [5]; bupivacaine 0.75% 40 μl intrathecal, 15 minutes after injection",reduced
"O=C(O)C1CC2CC(CCc3nnn[nH]3)CCC2CN1 (stereo not drawn) [LY293558, 6-[2-(1(2)H-tetrazole-5-yl)ethyl]decahydroisoquinolone-3-carboxylic acid]",change in blood pressure,rats [1]; 5 nmoles intrathecal,No change; also recorded: did not change
same,change in heart rate,rats [1]; 5 nmoles intrathecal,No change; also recorded: did not change
same,Rotorod performance decreased through (P<0.05 vs Pre),rats [2]; 5 nmoles intrathecal,4 h
same,recovery of Rotorod performance the next day,"rats [2]; 5 nmoles intrathecal, next day",full recovery
same,Rotarod Time,rats [2]; [17],3 ± 4 s
same,Rotarod Time,rats [2]; [18],115 ± 42 s
same,Rotarod Time,rats [2]; [19],149 ± 5 s
same,Rotarod Time,rats [2]; [20],144 ± 10 s
same,time by which all rats had recovered ambulation,rats [3]; 5 nmoles intrathecal,≤ 4 h
same,ambulation significantly impaired through (P<0.05 vs Pre),rats [3]; [21],90 min
same,Ambulation Score,rats [3]; [17],0 (0-0)*
same,Ambulation Score,rats [3]; [18],2 (2-2)
same,Ambulation Score,rats [3]; [19],2 (2-2)
same,Ambulation Score,rats [3]; [20],2 (2-2)
same,effects compared with bupivacaine,rats [4]; 5 nmoles intrathecal vs bupivacaine 0.75% 40 μl,more pronounced and sustained than bupivacaine; also recorded: more pronounced and prolonged
same,"greater motor deficits than bupivacaine (P<0.05) in all tests of motor function, through","rats [4]; 5 nmoles intrathecal vs bupivacaine, from 30 minutes",3 h
same,sensory and motor blockade of the hindlimbs,rats [4]; 5 nmoles intrathecal,"reversible, sustained sensory and motor blockade"
same,sensory and motor responses blocked through,rats [4]; 5 nmoles intrathecal,180 min
same,recovery of sensory and motor responses the following day,"rats [4]; 5 nmoles intrathecal, following day",complete recovery
same,greater inhibition of pinch than bupivacaine (P<0.05) through,rats [5]; 5 nmoles intrathecal vs bupivacaine,4 h
same,all rats failed to respond to pinch through (P<0.05 vs Pre),rats [5]; [21],90 min
same,recovery of pinch response the next day,"rats [5]; 5 nmoles intrathecal, next day",recovered fully
